Test: gradient 5% acetonitrile 3 min, to 50% in 2 min, to 85% in 15 min, held 3 min, 100 µL/min
Conditions: column: Zorbax Extend-C18 2.1 x 50 mm; eluents: water / acetonitrile, 0.1% formic acid
Method in brief: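 Over 3 months, pure standards in mixtures of ~100 molecules were run by HPLC coupled to a quadrupole time-of-flight mass spectrometer in positive and negative ionization mode. The column was a Zorbax Extend-C18 (2.1 × 50 mm, 1.8 μm) at 100 μL/min, eluted with water and acetonitrile each holding 0.1% formic acid, with 40 μL dead and 900 μL dwell volumes. Retention time was determined from adduct peaks chosen by software and checked manually.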

Row | Structure (SMILES) | RP-LC retention time [s]
1 | Cn1cc(-c2ccncc2)cc1C(=O)NCc1ccc(F)c(Cl)c1 | 664
2 | COc1cc(CNC(=O)C23CCC=C2N(C2CCCC2)C(=O)CC3)cc(OC)c1 (stereo unspecified) | 752
3 | O=C([C@@H]1C[C@H](F)CN1C(=O)Nc1ccc(C(F)(F)F)cc1)N1CCc2ccccc2C1 | 857
4 | CCc1nc2sc(C(C)C)nn2c1S(=O)(=O)N1CCCCC1 | 1020
5 | CCC1CCCCN1CCCNC(=O)c1ccnc(-c2cccs2)c1 (stereo unspecified) | 627
6 | CCOC(=O)CNC(=O)NC12CC3CC(CC(C3)C1)C2 | 802
7 | O=C(NCC(O)(c1ccccc1)C(F)(F)F)c1cnccn1 (stereo unspecified) | 710
8 | Cc1nn(-c2ccc(Cl)cc2)c(C)c1S(=O)(=O)N1CCN(c2ccccn2)CC1 | 747
9 | NS(=O)(=O)C#Cc1ccccc1 | 729
10 | CCOc1ccc(S(=O)(=O)N2CCC(C(=O)NCCOC)CC2)cc1 | 709
11 | Cc1ccc(NC(=O)Cn2cnc3c(-c4ccccc4)csc3c2=O)c(Cl)c1 | 965
12 | COc1ncccc1C(=O)N1CCC(C(=O)Nc2cc(C)on2)CC1 | 622
13 | CCC(=O)Nc1ccc2c(c1)CN(C(=O)c1ccccc1Cl)C(C(=O)N1CCCC1)C2 (stereo unspecified) | 714
14 | Cc1cccc(NC(=O)C2CCCN(c3ncnc4c3oc3ccccc34)C2)c1 (stereo unspecified) | 845
15 | CCOc1ccc(NC(=O)N2CCN(c3cc(C)nc(N4CCOCC4)n3)CC2)cc1 | 624
16 | O=C(CNC(=O)c1cc(F)cc(F)c1)Nc1nc2ccccc2[nH]1 | 642
17 | O=S(=O)(c1cccnc1)N1CCN(Cc2nnnn2-c2ccc(F)c(F)c2)CC1 | 733
18 | COc1ccc2c(c1)CCc1c-2n[nH]c1C(=O)O | 674
19 | COC(=O)c1cc(S(=O)(=O)N2CCCC2C(=O)Nc2cccc(C#N)c2)cn1C (stereo unspecified) | 826
20 | COC(=O)CNC(=O)N1CCC(N2C(=O)C3(CCCC3)C2c2scnc2C)CC1 (stereo unspecified) | 653
21 | CCc1noc(NC(C)=O)c1-c1ccc(C)c(S(=O)(=O)Nc2ccc(C)cc2)c1 | 830
22 | COc1ccc(-c2nnc(-c3cc(S(=O)(=O)N(C)C)ccc3Cl)o2)cc1 | 970
23 | O=C(NCc1ccc(-c2noc(Cc3ccccc3F)n2)s1)C1CC1 | 868

Row | Structure (SMILES) | RP-LC retention time [s]
24 | Cn1nc(C(=O)N2CCOCC2)c2c1CCN(C(=O)Nc1ccc(F)c(Cl)c1)C2 | 1070
25 | COc1ccc(CC(=O)N(C)CC2(C)CCOCC2)cc1Cl | 818
26 | O=C(Nc1nc2c(s1)CN(C(=O)C1CC=CCC1)CC2)c1cccs1 (stereo unspecified) | 770
27 | O=C(NCc1csc(-c2ccccc2)n1)C1CCN(S(=O)(=O)c2ccc(Cl)s2)CC1 | 995
28 | O=C(CSc1nc(-c2cccc([N+](=O)[O-])c2)cs1)N1CCOCC1 | 756
29 | CC(=O)Nc1ccc(C2(C(=O)NCc3ccccc3Cl)CCC2)cc1 | 802
30 | CCn1ccc2sc(C)c(C(=O)NCc3cc(C)ccc3C)c2c1=O | 959
31 | Cc1ccc(N2C(=O)CCS2(=O)=O)cc1S(=O)(=O)NCCc1c[nH]c2ccccc12 | 799
32 | Cc1ccc(NC(=O)N2CCC(n3cnnc3C3CC3)C2)cc1Cl (stereo unspecified) | 672
33 | CC(C)OC(=O)c1ncoc1-c1ccccc1C(=O)NCC1CCCO1 (stereo unspecified) | 676
34 | Cc1c(CCC(=O)N[C@H](C)C(=O)O)c(=O)oc2c(C)c(O)ccc12 | 618
35 | Cc1cccc(CN2CCCn3nc(C(=O)NCCCOC(C)C)cc3C2=O)c1 | 842
36 | COc1cc2ncnc(Nc3ccc(Cl)cc3F)c2cc1OC | 681
37 | Cc1ccc(NS(=O)(=O)c2cc(-c3[nH]ncc3C(=O)N3CCCC3)oc2C)cc1C | 776
38 | CCOC(=O)c1cnc2nc(C)ccc2c1Nc1cc(F)cc(F)c1 | 736
39 | Cc1ccc(-c2cc(C(=O)NCCc3sccc3C)c(C)[nH]2)cc1C | 1040
40 | COc1ccc(CCNC(=O)CSc2cc(N3CCC(C(=O)NC4CC4)CC3)ncn2)cc1OC | 624
41 | O=C(NCC1CCOCC1)c1n[nH]c2ccccc12 | 654
42 | COC(=O)c1ccc(NC(=O)Cn2cccc(-c3nc(-c4ccc(Cl)cc4)no3)c2=O)cc1 | 934
43 | COc1ccc2cc(C(=O)N3CCN(c4cc(=O)n(C)c(=O)n4C)CC3)[nH]c2c1 | 673
44 | O=S(=O)(CCc1noc(-c2ccc3cc[nH]c3c2)n1)c1ccccc1 | 912
45 | COC(=O)CNC(=O)C1COc2ccc(NC(=O)c3ccc(Cl)cc3)cc2C1 (stereo unspecified) | 794
46 | CCCN(CC1CCOC1)C(=O)Nc1ccc(Cl)cc1 (stereo unspecified) | 843

Row | Structure (SMILES) | RP-LC retention time [s]
47 | CCCCCNC(=O)c1ccc2c(c1)CCCN2S(=O)(=O)CC | 896
48 | O=c1cc(O)cc(/C=C/c2ccc(O)c(O)c2)o1 | 680
49 | CCOc1cc(=O)n2c(c1C(=O)Nc1cccc3c1CCCC3)CCCC2 | 804
50 | COc1ccc(C2CC(=O)N(c3ccc4c(c3)OCCO4)C(=O)C2)cc1 | 833
51 | O=S(c1cc(Cl)cc(Cl)c1O)c1cc(Cl)cc(Cl)c1O | 1160
52 | O=C1NC(=S)S/C1=C\c1cc(Br)ccc1OCc1ccccc1Br | 1270
53 | O=C(Nc1ccc2c(c1)OCCO2)c1ccnc(N2CCNC(c3ccccc3)C2)c1 (stereo unspecified) | 638
54 | CCN(CCCNC(=O)c1nnc(-c2ccc(S(=O)(=O)N3CCCC3)cc2)o1)c1ccccc1 | 714
55 | COc1ccccc1-c1nnc(-c2cc(S(=O)(=O)N3CCCCC3)ccc2Cl)o1 | 1080
56 | CC(C)CNC(=O)NC(c1ccccc1)c1nnc(-c2ccccc2Cl)o1 (stereo unspecified) | 898
57 | COc1cccc(S(=O)(=O)N2CCC(c3noc(-c4ccccc4)n3)CC2)c1 | 1120
58 | CCCN(CCC)C1CCc2cc(O)c(O)cc2C1 (stereo unspecified) | 641
59 | N#CCCSc1ccccc1NC(=O)c1ccc(Cl)s1 | 908
60 | CCCN1CCN(C(=O)Cc2ccc3nc(NC(C)=O)sc3c2)CC1 | 578
61 | Cc1ccc(Sc2cncc3sc(C(N)=O)cc23)cc1 | 836
62 | O=S(=O)(CCCOc1ccc(F)cc1)NCc1ccccn1 | 645
63 | CCn1c(=O)sc2cc(S(=O)(=O)N3CCC(C(=O)Nc4cc(C)ccc4OC)CC3)ccc21 | 978
64 | CC(C)n1c(=O)c2ccccc2n(Cc2nc(-c3ccc(Br)cc3)no2)c1=O | 1230
65 | CCn1cc(C)c(C(=O)O)c1CC(=O)Nc1ccc(Cl)cc1 | 1010
66 | CN(C)S(=O)(=O)c1ccc(-c2nnc(C(=O)NCc3ccc(F)c(Cl)c3)o2)cc1 | 898
67 | O=C(C1CC1)N1CCc2sc(S(=O)(=O)Nc3cccc(Cl)c3F)cc2C1 | 870
68 | CCc1ccc(CNC(=O)c2cc3n(n2)CC(C)(C(=O)NCCC(C)C)N(C)C3=O)cc1 (stereo unspecified) | 860
69 | COc1cccc(N2CCN(CC(O)c3ccc4c(c3)OCO4)CC2)c1 (stereo unspecified) | 640

Row | Structure (SMILES) | RP-LC retention time [s]
70 | O=C1CC(c2nc(-c3cccc(Cl)c3)no2)CN1c1ccc2c(c1)OCO2 (stereo unspecified) | 1030
71 | COc1ccc(NC(=O)N2CCOc3ccc(Cl)cc32)cc1OC | 870
72 | O=C(c1cc2ccc3cccnc3c2[nH]1)N1CCN(c2ccccn2)CC1 | 596
73 | COc1cc(OC)cc(-c2nc(-c3ccc(NS(=O)(=O)c4cccs4)cc3)no2)c1 | 1120
74 | CCc1nn2c(=O)cc(CSc3nnc(-c4ccc5c(c4)OCO5)o3)nc2s1 | 743
75 | CCn1ccc2c(cc(C(=O)Nc3ccccc3C(F)(F)F)n2C)c1=O | 742
76 | CC1(C)COc2ccc(NC(=O)c3ccc(Br)o3)cc2NC1=O | 824
77 | COc1ccc(-c2nccn3cc(C(=O)O)nc23)cc1 | 672
78 | Cc1ccc(S(=O)(=O)N2CCC(CN3CCCC(C)C3)CC2)cc1Cl (stereo unspecified) | 683
79 | CC(C)(C)C(=O)NC1CCN(C(=O)C2CC2)C1 (stereo unspecified) | 623
80 | O=C(NCCc1ccccn1)C1CCN(c2cnn(Cc3ccccc3)c(=O)c2)CC1 | 594
81 | CCOc1ccc(-c2nc(CN(c3ccccc3)S(=O)(=O)c3cccs3)c(C)o2)cc1 | 1220
82 | CN(C)S(=O)(=O)c1ccc(C(=O)Oc2coc(CSc3nccn3C)cc2=O)cc1 | 566
83 | O=S(=O)(c1c(Cl)cccc1Cl)N1CCN(Cc2ccc3c(c2)OCO3)CC1 | 595
84 | COc1ccc(C2(C)NC(=O)N(CC(=O)Nc3ccc([N+](=O)[O-])cc3)C2=O)cc1 (stereo unspecified) | 727
85 | Cn1cnnc1SCC(=O)N1CCCCCC1 | 581
86 | COc1cc(C(=O)N2CCN(c3cc(-c4ccc(Cl)cc4)[nH]n3)CC2)cc(OC)c1OC | 827
87 | O=C(Cn1nc(N2CCCCCC2)c2ccccc2c1=O)Nc1ccc(Cl)cc1 | 1160
88 | CC(C)c1ccc(OCC(=O)Nc2nc(-c3ccccc3)cs2)cc1 | 1240
89 | Cc1cc(=O)n(CC(=O)NCCc2ccc(Cl)cc2)c(N2CCOCC2)n1 | 701
90 | COCC(=O)N(CC(=O)N1CCc2sccc2C1COc1ccccc1OC)C(C)C (stereo unspecified) | 795
91 | CSc1cccc(NS(=O)(=O)c2cc3c(s2)CCN(C(=O)C2CC2)C3)c1 | 860

Reference: the METLIN SMRT retention time set (Domingo-Almenara et al. 2019)
